Measured values published in US20050037975A1, “Method for treatment of glutamate related disorders” (priority 1997, published 2005).
Marks after values point to notes of the source that are not given here.

How the values were obtained:
mouse liver low Km ALDH = target: T1, mouse liver low Km ALDH (Mus musculus, UniProt P47738); test: In vivo inhibition of mouse liver aldehyde dehydrogenase
T1 construct: Liver aldehyde dehydrogenase was extracted and assayed as previously described; from tissue; host or cells: liver of treated mice
T1 sequence (P47738 20-519): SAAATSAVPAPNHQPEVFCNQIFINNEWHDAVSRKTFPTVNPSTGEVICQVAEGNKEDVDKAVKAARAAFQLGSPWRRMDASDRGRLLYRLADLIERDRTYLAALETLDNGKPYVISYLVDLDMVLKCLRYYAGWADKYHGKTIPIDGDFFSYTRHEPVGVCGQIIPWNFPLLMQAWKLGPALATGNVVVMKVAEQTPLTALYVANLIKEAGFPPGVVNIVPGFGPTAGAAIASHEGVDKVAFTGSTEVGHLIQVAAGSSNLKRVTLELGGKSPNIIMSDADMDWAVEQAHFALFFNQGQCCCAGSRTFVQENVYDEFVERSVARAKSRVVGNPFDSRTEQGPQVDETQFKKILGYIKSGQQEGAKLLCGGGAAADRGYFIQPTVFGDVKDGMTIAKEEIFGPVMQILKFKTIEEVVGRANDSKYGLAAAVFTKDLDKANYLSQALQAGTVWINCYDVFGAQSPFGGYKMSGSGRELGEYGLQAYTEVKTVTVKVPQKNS
Procedure: Reagents—DETC-MeSO was synthesized by the method of Hart and Faiman (B. W. Hart et al., Biochem. Pharmacol.), 43, 403-406 (1992). Carbamoylated glutathione, S-(N,N-diethylcarbamoyl)glutathione (DETC-GS), was prepared essentially as described by Jin et al. (L. Jin, supra). The structures and purity of DETC-MeSO and DETC-GS were confirmed by 300 MHz NMR and FAB-tandem mass spectrometry. A QE300 NMR spectrometer (General Electric, Fremont, Calif.) and Autospec-Q Tandem Hybrid mass spectrometer (Fiscons/VG Analytical Limited, Manchester, England) were employed for these analyses. Liver aldehyde dehydrogenase was extracted and assayed as previously described (B. W. Hart et al., supra). MetSOX monosodium L-glutamate, glycine, glutathione, and NMDA were purchased from Sigma Chemical Company (St. Louis, Mo.). L-[3-^3H]Glutamate (46 Ci/mmol) was obtained from Amerisham Life Science (Buckinghamshire, England).

brain or liver SSA DH = target: T2, brain or liver SSA DH (Mus musculus, UniProt Q8BWF0); test: In vivo effect on brain or liver SSA DH levels; details: up to 100 mg/kg i.p.
T2 construct: with no effect on the levels of brain or liver SSA DH; from tissue; host or cells: brain or liver of treated animals
T2 sequence (Q8BWF0 36-523): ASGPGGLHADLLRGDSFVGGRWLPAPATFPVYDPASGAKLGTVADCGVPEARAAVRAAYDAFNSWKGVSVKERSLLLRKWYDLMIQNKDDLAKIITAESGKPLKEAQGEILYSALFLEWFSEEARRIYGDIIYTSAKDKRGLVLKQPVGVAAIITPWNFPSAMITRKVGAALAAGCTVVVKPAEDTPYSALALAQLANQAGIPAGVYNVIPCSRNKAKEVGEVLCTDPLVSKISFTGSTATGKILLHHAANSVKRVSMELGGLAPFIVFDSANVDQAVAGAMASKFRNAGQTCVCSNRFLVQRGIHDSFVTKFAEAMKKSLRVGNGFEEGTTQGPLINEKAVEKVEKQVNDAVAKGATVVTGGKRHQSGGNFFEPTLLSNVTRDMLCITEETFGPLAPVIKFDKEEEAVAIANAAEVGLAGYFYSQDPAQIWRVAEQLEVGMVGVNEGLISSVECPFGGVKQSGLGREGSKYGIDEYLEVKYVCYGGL

NMDA-induced seizures = NMDA-induced seizures in mice; format: in vivo
Procedure: (§1) Animals—Male Swiss Webster mice (20-30 g) or male Sprague-Dawley rats (250-300 g) were used. All that employed animals were conducted in strict compliance with the NIH guidelines on animal use and institutional regulations concerning animal experimentation. Animals were exposed to hyperbaric oxygen in a specify designed press chamber as previously described (M. D. Faiman et al., Biochem. Pharmacol., 20, 3049-3067 (1971); M. D. Faiman et al. Aerosp. Med.,45, 29032.(1974)). The time to first clonic-tonic seizure after brining animals to a final pressure of five atmospheres of 100% oxygen or after intraperitoneal injection of convulsants was noted by. criteria outlined previously (M. D. Faiman et al. (1971), supra M. D. Faiman et al. (1974), supra). Unless otherwise specified, the ability of DETC-MeSO to prevent seizures was tested by intraperitoneal injection of 5.2 mg/kg of DETC-MeSO 1-2 hours prior to bringing the animal to a final pressure of 5 atmospheres of 100% oxygen or intraperitoneal injection of N-methyl-D-asparate (NMA) (125 mg/kg) r L-methionine sulfoximine (MetSOX) (250 mg/kg). Evaluation of the statistics for whole animal experiments or for changes in brain glutamate binding after administration of DETC-MeSO was conducted by use of the program GraphPAD InStat from Graph PAD Software (San Diego, Calif.).

[1] = tested on: oxygen-induced seizures (5 ATA O2); test: Hyperbaric oxygen-induced seizures in mice; format: in vivo
Procedure: as §1

inactivation of ALDH (mouse liver low Km ALDH; 5.2 mg/kg i.p. in mice, in 1 hour): 80% | effective concentration at its site of action in vivo (mouse liver low Km ALDH; 5.2 mg/kg i.p. in mice, worked out from inactivation rate): about 11 μM | inhibition at 2.6 mg/kg (mouse liver low Km ALDH; mouse, ip, 2.6 mg/kg i.p., read-out: inhibition of mouse liver enzyme (ALDH)): 84% | inhibition at 30 µmol/kg (mouse liver low Km ALDH; mouse, 30 μmol/kg intravenous, mice): 44.9 ± 1% | effect on the levels of brain or liver SSA DH (brain or liver SSA DH): no effect
SMILES: CCN(CC)C(=O)[S+](C)[O-] (stereo not drawn) [DETC-MeSO, S-Methyl-N,N-Diethylthiolcarbamate Sulfoxide]
effect on seizures that result from NMDA administration (NMDA-induced seizures; NMDA 125 mg/kg i.p.): prevented seizures | number of animals that exhibited the effect/total number of animals in the group (NMDA-induced seizures; NMDA 125 mg/kg, 5.2 mg/kg i.p. 1-2 hours prior): (0/6)^a | mean time to seizure (NMDA-induced seizures; NMDA 125 mg/kg, 5.2 mg/kg i.p. 1-2 hours prior, observation 2 hours): >120^a min | effect on oxygen-induced seizures ([1]; 5.2 mg/kg i.p. 2 hours before 5 atmospheres of 100% oxygen, mice): prevented the seizures | number of animals that exhibited the effect/total number of animals in the group ([1]; 5 ATA 100% O2, mice): (0/5)^a | mean time to seizure ([1]; 5 ATA 100% O2, mice, 5.2 mg/kg i.p. prior, observation one hour): >60^a min
